In US20240108006A1, “PESTICIDALLY ACTIVE HETEROAROMATIC COMPOUNDS” (SYNGENTA CROP PROTECTION AG, priority 2021, published 2024):

Legend:
Type in all cases: in vivo
Chilo suppressalis = test: Example B1: Chilo suppressalis (striped rice stemborer), artificial diet, L2 larvae; settings: 144 h, application rate of 200 ppm, 6 days after infestation, read-out: control in at least one of the three categories (mortality, anti-feedant effect, or growth inhibition)
Method in brief: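 L2 larvae (6-8 per well) were placed on dried artificial diet that had been dosed with aqueous dilutions of 10,000 ppm DMSO stock solutions. After 6 days, control was credited if mortality, antifeedant effect or growth inhibition was higher than in untreated samples.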

Diabrotica balteata = test: Example B2: Diabrotica balteata (corn root worm), maize sprouts, L2 larvae; settings: 96 h, application rate of 200 ppm, 4 days after infestation, read-out: control in at least one of the two categories (mortality or growth inhibition)
Method: Example B2: Diabrotica balteata (Corn Root Worm)
Maize sprouts placed onto an agar layer in 24-well microtiter plates were treated with aqueous test solutions prepared from 10,000 ppm DMSO stock solutions by spraying. After drying, the plates were infested with L2 larvae (6 to 10 per well). The samples were assessed for mortality and growth inhibition in comparison to untreated samples 4 days after infestation.
The following compounds gave an effect of at least 80% control in at least one of the two categories (mortality or growth inhibition) at an application rate of 200 ppm: […]

Plutella xylostella = test: Example B8: Plutella xylostella (diamond back moth), artificial diet 24-well, eggs; settings: 192 h, application rate of 200 ppm, 8 days after infestation, read-out: effect in at least one of the two categories (mortality or growth inhibition)
Method in brief: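 Plutella eggs placed onto dried, compound-treated artificial diet, the aqueous test solutions diluted from 10,000 ppm DMSO stocks. Eight days post-infestation, larvae rated for mortality and growth inhibition relative to untreated controls.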

Spodoptera littoralis = test: Example B9: Spodoptera littoralis (Egyptian cotton leaf worm), cotton leaf discs, L1 larvae; settings: foliar, 72 h, application rate of 200 ppm, 3 days after infestation, read-out: control in at least one of the three categories (mortality, anti-feedant effect, or growth inhibition)
Method in brief: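 Five L1 larvae placed on sprayed, dried cotton leaf discs; spray solutions aqueous, from 10,000 ppm DMSO stocks. Control given when mortality, anti-feedant effect or growth inhibition exceeds untreated samples at 3 days.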

C[C@H](NC(=O)Nc1ccc(C(F)(F)F)cc1C(F)(F)F)c1ncnn1-c1ccc(C#N)cn1 [Example P13, 1-[2,4-bis(trifluoromethyl)phenyl]-3-[(1S)-1-[2-(5-cyano-2-pyridyl)-1,2,4-triazol-3-yl]ethyl]urea]
≥ 80%: percent control (mortality, anti-feedant effect or growth inhibition) at 200 ppm (Chilo suppressalis) | percent control (mortality or growth inhibition) at 200 ppm (Diabrotica balteata) | percent effect (mortality or growth inhibition) at 200 ppm (Plutella xylostella) | percent control (mortality, anti-feedant effect or growth inhibition) at 200 ppm (Spodoptera littoralis)

C[C@H](NC(=O)Nc1cc(C(F)(F)F)ccc1Cl)c1ncnn1-c1ncccn1 [Example P14, 1-[2-chloro-5-(trifluoromethyl)phenyl]-3-[(1S)-1-(2-pyrimidin-2-yl-1,2,4-triazol-3-yl)ethyl]urea]
≥ 80%: percent control (mortality, anti-feedant effect or growth inhibition) at 200 ppm (Chilo suppressalis) | percent control (mortality or growth inhibition) at 200 ppm (Diabrotica balteata) | percent effect (mortality or growth inhibition) at 200 ppm (Plutella xylostella) | percent control (mortality, anti-feedant effect or growth inhibition) at 200 ppm (Spodoptera littoralis)

C[C@H](NC(=O)Nc1cc(Cl)c(Cl)cc1Cl)c1ncnn1-c1ncccn1 [Example P43, 1-[(1S)-1-(2-pyrimidin-2-yl-1,2,4-triazol-3-yl)ethyl]-3-(2,4,5-trichlorophenyl)urea]
≥ 80%: percent control (mortality, anti-feedant effect or growth inhibition) at 200 ppm (Chilo suppressalis) | percent control (mortality or growth inhibition) at 200 ppm (Diabrotica balteata) | percent effect (mortality or growth inhibition) at 200 ppm (Plutella xylostella) | percent control (mortality, anti-feedant effect or growth inhibition) at 200 ppm (Spodoptera littoralis)

C[C@H](NC(=O)N(C)c1ccc(Cl)cc1Cl)c1ncnn1-c1ncccn1 [Example P114, 1-(2,4-dichlorophenyl)-1-methyl-3-[(1S)-1-(2-pyrimidin-2-yl-1,2,4-triazol-3-yl)ethyl]urea]
≥ 80%: percent control (mortality, anti-feedant effect or growth inhibition) at 200 ppm (Chilo suppressalis) | percent control (mortality or growth inhibition) at 200 ppm (Diabrotica balteata) | percent effect (mortality or growth inhibition) at 200 ppm (Plutella xylostella) | percent control (mortality, anti-feedant effect or growth inhibition) at 200 ppm (Spodoptera littoralis)

C[C@@H](NC(=O)Nc1cc(OC(F)(F)C(F)F)c(Cl)cc1Cl)c1nccnc1-c1ncccn1 [Example P136, 1-[2,4-dichloro-5-(1,1,2,2-tetrafluoroethoxy)phenyl]-3-[(1R)-1-(3-pyrimidin-2-ylpyrazin-2-yl)ethyl]urea]
≥ 80%: percent control (mortality, anti-feedant effect or growth inhibition) at 200 ppm (Chilo suppressalis) | percent control (mortality or growth inhibition) at 200 ppm (Diabrotica balteata) | percent effect (mortality or growth inhibition) at 200 ppm (Plutella xylostella)

C[C@H](NC(=O)Nc1cc(C(F)(F)F)c(Cl)cc1Cl)c1ncnn1-c1ncc(C#N)s1 [Example P140, 1-[(1S)-1-[2-(5-cyanothiazol-2-yl)-1,2,4-triazol-3-yl]ethyl]-3-[2,4-dichloro-5-(trifluoromethyl)phenyl]urea]
≥ 80%: percent control (mortality, anti-feedant effect or growth inhibition) at 200 ppm (Chilo suppressalis) | percent control (mortality or growth inhibition) at 200 ppm (Diabrotica balteata) | percent effect (mortality or growth inhibition) at 200 ppm (Plutella xylostella) | percent control (mortality, anti-feedant effect or growth inhibition) at 200 ppm (Spodoptera littoralis)

C[C@H](NC(=O)Nc1cc(OC(F)(F)C(F)C(F)(F)F)c(Cl)cc1Cl)c1ncnn1-c1ncccn1 (stereo partly drawn) [Example P223, 1-[2,4-dichloro-5-(1,1,2,3,3,3-hexafluoropropoxy)phenyl]-3-[(1S)-1-(2-pyrimidin-2-yl-1,2,4-triazol-3-yl)ethyl]urea]
≥ 80%: percent control (mortality, anti-feedant effect or growth inhibition) at 200 ppm (Chilo suppressalis) | percent control (mortality or growth inhibition) at 200 ppm (Diabrotica balteata) | percent effect (mortality or growth inhibition) at 200 ppm (Plutella xylostella) | percent control (mortality, anti-feedant effect or growth inhibition) at 200 ppm (Spodoptera littoralis)

CC(NC(=O)Nc1cc(OC(F)(F)C(F)F)c(Cl)cc1Cl)c1nccnc1-n1nccn1 (stereo not shown) [Example P258, 1-[2,4-dichloro-5-(1,1,2,2-tetrafluoroethoxy)phenyl]-3-[1-[3-(triazol-2-yl)pyrazin-2-yl]ethyl]urea]
≥ 80%: percent control (mortality, anti-feedant effect or growth inhibition) at 200 ppm (Chilo suppressalis) | percent control (mortality or growth inhibition) at 200 ppm (Diabrotica balteata) | percent effect (mortality or growth inhibition) at 200 ppm (Plutella xylostella)

CC(NC(=O)Nc1ccc(Br)cc1OC(F)F)c1nccnc1-n1nccn1 (stereo not shown) [Example P261, 1-[4-bromo-2-(difluoromethoxy)phenyl]-3-[1-[3-(triazol-2-yl)pyrazin-2-yl]ethyl]urea]
≥ 80%: percent control (mortality, anti-feedant effect or growth inhibition) at 200 ppm (Chilo suppressalis) | percent control (mortality or growth inhibition) at 200 ppm (Diabrotica balteata) | percent effect (mortality or growth inhibition) at 200 ppm (Plutella xylostella) | percent control (mortality, anti-feedant effect or growth inhibition) at 200 ppm (Spodoptera littoralis)
